The target of one experiment is T1, HiBiT-BRM (Homo sapiens, UniProt P51531).
T1 construct: expressed in transfected cells
Description: HiBiT-BRM cell-based degradation assay (Nano-Glo HiBiT Lytic Detection). Particulars: HeLa cells expressing HiBiT-BRM, 24 h; for DC50: read-out: BRM HiBit Degradation IC50. Summed up:
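Luminescence from HiBiT–LgBiT complementation in lysates of a stable HiBiT-BRM HeLa line measured after 24 h compound exposure. Degradation expressed as percent relative to DMSO-treated cells and cells given 2 μM of a known BRM/BRG1 degrader.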

For the next experiment, the target named is T2, HiBit-BRG1 (Homo sapiens, UniProt P51532).
T2 construct: expressed in transfected cells
Description: HiBit-BRG1 cell-based degradation assay (Nano-Glo HiBiT Lytic Detection). Particulars: HeLa cells expressing HiBit-BRG1 and LgBit, 24 h; for DC50: read-out: BRG1 HiBit Degradation IC50; for Dmax: read-out: BRG1 HiBit Degradation Maximum (%). Put shortly: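 Percent degradation derived from lytic HiBiT signal, normalized to DMSO-treated cells and to cells given 2 μM of a known BRM/BRG1 degrader. The HeLa line stably expressed HiBit-BRG1 and LgBit; treatment lasted 24 h at 5000 cells per well.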

The structures appear in SMILES notation. A value given as a limit tells only on which side of the number the result lay.

T2 sequence (P51532 whole entry): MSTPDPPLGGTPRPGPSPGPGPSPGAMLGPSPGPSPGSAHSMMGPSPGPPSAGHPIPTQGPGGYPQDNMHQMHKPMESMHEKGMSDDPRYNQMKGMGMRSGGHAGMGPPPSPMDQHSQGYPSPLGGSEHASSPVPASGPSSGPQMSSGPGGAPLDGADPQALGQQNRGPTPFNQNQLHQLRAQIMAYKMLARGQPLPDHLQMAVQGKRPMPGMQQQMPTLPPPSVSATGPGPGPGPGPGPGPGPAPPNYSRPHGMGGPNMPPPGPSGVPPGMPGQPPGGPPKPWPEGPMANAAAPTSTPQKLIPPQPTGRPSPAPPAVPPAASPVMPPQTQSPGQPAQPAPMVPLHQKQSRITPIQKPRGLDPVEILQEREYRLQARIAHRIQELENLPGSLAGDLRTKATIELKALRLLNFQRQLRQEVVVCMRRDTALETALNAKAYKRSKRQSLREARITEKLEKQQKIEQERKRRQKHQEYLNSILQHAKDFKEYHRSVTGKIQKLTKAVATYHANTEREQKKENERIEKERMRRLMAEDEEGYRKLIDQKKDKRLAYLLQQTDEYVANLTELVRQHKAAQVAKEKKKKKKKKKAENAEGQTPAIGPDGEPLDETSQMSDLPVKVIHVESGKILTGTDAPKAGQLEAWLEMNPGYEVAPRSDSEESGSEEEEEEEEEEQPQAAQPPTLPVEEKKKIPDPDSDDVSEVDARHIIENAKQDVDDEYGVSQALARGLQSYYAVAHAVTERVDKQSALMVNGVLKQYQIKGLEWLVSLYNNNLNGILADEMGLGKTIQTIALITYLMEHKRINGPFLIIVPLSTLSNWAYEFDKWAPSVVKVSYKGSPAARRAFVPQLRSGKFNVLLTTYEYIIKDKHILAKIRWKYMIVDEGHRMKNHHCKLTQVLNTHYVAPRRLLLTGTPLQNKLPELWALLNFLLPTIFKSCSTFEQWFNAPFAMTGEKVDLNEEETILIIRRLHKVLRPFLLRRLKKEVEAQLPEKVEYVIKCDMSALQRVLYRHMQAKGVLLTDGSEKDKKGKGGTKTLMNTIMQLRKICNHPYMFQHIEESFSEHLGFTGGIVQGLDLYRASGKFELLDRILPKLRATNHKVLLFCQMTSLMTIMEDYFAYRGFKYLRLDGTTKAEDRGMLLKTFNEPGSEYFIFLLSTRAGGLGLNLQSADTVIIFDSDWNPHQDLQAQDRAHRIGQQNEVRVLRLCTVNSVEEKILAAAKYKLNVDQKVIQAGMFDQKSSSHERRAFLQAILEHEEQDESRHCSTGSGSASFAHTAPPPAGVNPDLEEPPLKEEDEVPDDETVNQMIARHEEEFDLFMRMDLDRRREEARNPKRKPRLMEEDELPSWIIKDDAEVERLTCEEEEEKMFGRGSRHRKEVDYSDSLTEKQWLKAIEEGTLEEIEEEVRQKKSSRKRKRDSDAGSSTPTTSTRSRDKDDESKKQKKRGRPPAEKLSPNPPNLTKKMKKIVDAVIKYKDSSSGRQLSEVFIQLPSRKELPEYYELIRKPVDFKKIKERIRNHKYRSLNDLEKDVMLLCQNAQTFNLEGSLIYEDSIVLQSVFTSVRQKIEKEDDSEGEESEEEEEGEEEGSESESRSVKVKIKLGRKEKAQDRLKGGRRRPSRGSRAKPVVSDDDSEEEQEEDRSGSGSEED
T1 sequence (P51531 whole entry): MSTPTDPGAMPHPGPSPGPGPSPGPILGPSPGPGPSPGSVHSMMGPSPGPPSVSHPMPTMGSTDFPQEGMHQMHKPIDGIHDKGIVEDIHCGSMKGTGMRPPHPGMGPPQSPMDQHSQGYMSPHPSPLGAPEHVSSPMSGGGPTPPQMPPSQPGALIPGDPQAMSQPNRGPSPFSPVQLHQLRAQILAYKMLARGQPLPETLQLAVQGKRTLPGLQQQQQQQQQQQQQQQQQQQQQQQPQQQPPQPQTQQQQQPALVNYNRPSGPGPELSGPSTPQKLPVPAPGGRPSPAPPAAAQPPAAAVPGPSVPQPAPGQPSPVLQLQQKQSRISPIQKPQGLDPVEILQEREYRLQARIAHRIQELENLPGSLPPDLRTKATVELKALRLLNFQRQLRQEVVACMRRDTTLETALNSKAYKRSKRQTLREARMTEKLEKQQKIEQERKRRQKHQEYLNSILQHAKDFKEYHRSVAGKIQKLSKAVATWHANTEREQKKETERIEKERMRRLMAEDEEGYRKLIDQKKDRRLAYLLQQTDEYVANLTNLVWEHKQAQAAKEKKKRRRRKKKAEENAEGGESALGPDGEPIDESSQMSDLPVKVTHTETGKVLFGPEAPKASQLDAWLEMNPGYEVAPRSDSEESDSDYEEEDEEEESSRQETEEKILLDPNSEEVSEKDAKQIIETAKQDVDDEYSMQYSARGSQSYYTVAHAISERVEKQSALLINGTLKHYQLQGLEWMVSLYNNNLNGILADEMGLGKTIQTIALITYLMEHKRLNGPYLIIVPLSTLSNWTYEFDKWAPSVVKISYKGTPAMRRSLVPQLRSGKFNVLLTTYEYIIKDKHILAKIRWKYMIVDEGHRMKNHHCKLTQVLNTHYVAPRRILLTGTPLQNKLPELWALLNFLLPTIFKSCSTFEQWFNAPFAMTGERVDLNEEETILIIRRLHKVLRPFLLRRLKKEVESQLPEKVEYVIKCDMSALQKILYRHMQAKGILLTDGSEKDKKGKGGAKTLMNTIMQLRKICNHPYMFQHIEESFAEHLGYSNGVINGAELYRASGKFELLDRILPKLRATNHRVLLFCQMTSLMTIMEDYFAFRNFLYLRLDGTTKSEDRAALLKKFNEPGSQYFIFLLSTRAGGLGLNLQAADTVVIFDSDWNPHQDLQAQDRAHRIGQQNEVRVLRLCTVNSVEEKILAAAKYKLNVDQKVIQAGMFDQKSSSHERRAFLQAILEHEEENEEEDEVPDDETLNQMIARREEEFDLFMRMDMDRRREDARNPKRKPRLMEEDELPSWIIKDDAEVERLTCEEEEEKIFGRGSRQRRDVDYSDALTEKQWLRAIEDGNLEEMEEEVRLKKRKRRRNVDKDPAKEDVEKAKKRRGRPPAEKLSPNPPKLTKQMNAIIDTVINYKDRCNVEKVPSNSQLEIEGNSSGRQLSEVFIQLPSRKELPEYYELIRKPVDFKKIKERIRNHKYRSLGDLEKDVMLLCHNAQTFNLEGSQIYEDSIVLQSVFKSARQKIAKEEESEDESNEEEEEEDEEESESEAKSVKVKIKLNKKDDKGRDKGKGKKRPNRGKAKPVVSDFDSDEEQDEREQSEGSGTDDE

As to `Cc1ncsc1-c1ccc([C@H](C)NC(=O)[C@@H]2C[C@@H](O)CN2C(=O)[C@@H](c2cc(OCCNCCCCCCC(=O)NCc3ccc(CCOc4cc(-c5ccccc5O)nnc4N)cc3)no2)C(C)C)cc1` [Compound 229, (2S,4R)-1-((R)-2-(3-(2-((7-((4-(2-((3-amino-6-(2-hydroxyphenyl)pyridazin-4-yl)oxy)ethyl)benzyl)amino)-7-oxoheptyl)amino)ethoxy)isoxazol-5-yl)-3-methylbutanoyl)-4-hydroxy-N-((S)-1-(4-(4-methylthiazol-5-yl)phenyl)ethyl)pyrrolidine-2-carboxamide], on HiBiT-BRM, the “BRM HiBit Degradation Maximum (%)” value is listed as “B (“B” indicates maximum degradation ≥50%)” and the DC50 is above 1 µM. At HiBit-BRG1, the DC50 is above 1 µM and the Dmax was below 50%.
In the case of `Nc1nnc(-c2ccccc2O)cc1OCCc1ccc(CNCCN2CCN(c3cccc4c3C(=O)N(C3CCC(=O)NC3=O)C4=O)CC2=O)cc1` (centres unmarked) [Compound 153, 4-(4-(2-((4-(2-((3-amino-6-(2-hydroxyphenyl)pyridazin-4-yl)oxy)ethyl)benzyl)amino)ethyl)-3-oxopiperazin-1-yl)-2-(2,6-dioxopiperidin-3-yl)isoindoline-1,3-dione], on HiBiT-BRM, the “BRM HiBit Degradation Maximum (%)” value is on record as “C (“C” indicates maximum degradation <50%)” and the DC50 was above 1 µM. For the same compound, on HiBit-BRG1, the DC50 was above 1 µM and the Dmax was below 50%.
On to `Cc1ncsc1-c1ccc(CNC(=O)[C@@H]2C[C@@H](O)CN2C(=O)[C@@H](NC(=O)COCCOCCOCCNC(=O)CN2CCN(c3cc(-c4ccccc4O)nnc3N)CC2)C(C)(C)C)cc1` [Compound 86, (2S,4R)-1-[(2S)-2-[2-(2-[2-[2-(2-[4-[3-amino-6-(2-hydroxyphenyl)pyridazin-4-yl]piperazin-1-yl]acetamido)ethoxy]ethoxy]ethoxy)acetamido]-3,3-dimethylbutanoyl]-4-hydroxy-N-[[4-(4-methyl-1,3-thiazol-5-yl)phenyl]methyl]pyrrolidine-2-carboxamide], for which, on HiBiT-BRM, the “BRM HiBit Degradation Maximum (%)” value is given as “C (“C” indicates maximum degradation <50%)” and the DC50 was above 1 µM. At HiBit-BRG1, the DC50 was above 1 µM and the Dmax was below 50%.
In the case of `Cc1ncsc1-c1ccc([C@H](C)NC(=O)[C@@H]2C[C@@H](O)CN2C(=O)[C@@H](c2cc(OCCN3CCC4(CC3)CC(C(=O)NCc3ccc(CCOc5cc(-c6ccccc6O)nnc5N)cc3)C4)no2)C(C)C)cc1` [Compound 195, N-(4-(2-((3-amino-6-(2-hydroxyphenyl)pyridazin-4-yl)oxy)ethyl)benzyl)-7-(2-((5-((R)-1-((2S,4R)-4-hydroxy-2-(((S)-1-(4-(4-methylthiazol-5-yl)phenyl)ethyl)carbamoyl)pyrrolidin-1-yl)-3-methyl-1-oxobutan-2-yl)isoxazol-3-yl)oxy)ethyl)-7-azaspiro[3.5]nonane-2-carboxamide], on HiBiT-BRM, the “BRM HiBit Degradation Maximum (%)” value is “A (“A” indicates maximum degradation ≥75%)” and the DC50 is above 0.01 µM. For the same compound, at HiBit-BRG1, the DC50 was above 0.1 µM and the Dmax was above 75%.
For `Cc1ncsc1-c1ccc(CNC(=O)[C@@H]2C[C@@H](O)CN2C(=O)[C@@H](NC(=O)CCN2C[C@@H]3CN(C(=O)c4ccc(CCOc5cc(-c6ccccc6O)nnc5N)cc4)C[C@@H]3C2)C(C)(C)C)cc1` [Compound 203, (2S,4R)-1-((2S)-2-(3-(5-(4-(2-((3-amino-6-(2-hydroxyphenyl)pyridazin-4-yl)oxy)ethyl)benzoyl)hexahydropyrrolo[3,4-c]pyrrol-2(1H)-yl)propanamido)-3,3-dimethylbutanoyl)-4-hydroxy-N-(4-(4-methylthiazol-5-yl)benzyl)pyrrolidine-2-carboxamide], in that order: “B (“B” indicates maximum degradation ≥50%)”, above 1 µM, above 1 µM and below 50%.
Consider `Nc1nnc(-c2ccccc2O)cc1OCCc1ccc(CNCCCCCNc2cccc3c2C(=O)N(C2CCC(=O)NC2=O)C3=O)cc1` (centres unmarked) [Compound 112, 4-[[5-([[4-(2-[[3-amino-6-(2-hydroxyphenyl)pyridazin-4-yl]oxy]ethyl)phenyl]methyl]amino)pentyl]amino]-2-(2,6-dioxopiperidin-3-yl)isoindole-1,3-dione], for which, at HiBiT-BRM, the “BRM HiBit Degradation Maximum (%)” value was “B (“B” indicates maximum degradation ≥50%)” and the DC50 was above 0.01 µM. On HiBit-BRG1, the DC50 is above 1 µM and the Dmax is above 50%.
For `Nc1nnc(-c2ccccc2O)cc1N1CCN(CCNC(=O)CCCCCCCCNc2cccc3c2C(=O)N(C2CCC(=O)NC2=O)C3=O)CC1` (centres unmarked) [Compound 97, N-(2-[4-[3-amino-6-(2-hydroxyphenyl)pyridazin-4-yl]piperazin-1-yl]ethyl)-9-[[2-(2,6-dioxopiperidin-3-yl)-1,3-dioxoisoindol-4-yl]amino]nonanamide], in that order: “C (“C” indicates maximum degradation <50%)”, above 1 µM, above 1 µM and below 50%.
As to `Nc1nnc(-c2ccccc2O)cc1OCCc1ccc(C(=O)NCCCCCCCCCCC(=O)NCc2ccc(S(=O)(=O)Nc3cccc4c(Cl)c[nH]c34)cc2)cc1` [Compound 11, 11-[[4-(2-[[3-amino-6-(2-hydroxyphenyl)pyridazin-4-yl]oxy]ethyl)phenyl]formamido]-N-([4-[(3-chloro-1H-indol-7-yl)sulfamoyl]phenyl]methyl)undecanamide], at HiBiT-BRM, the “BRM HiBit Degradation Maximum (%)” value is reported as “C (“C” indicates maximum degradation <50%)” and the DC50 is above 1 µM. For the same compound, on HiBit-BRG1, the DC50 was above 1 µM and the Dmax was below 50%.
As for `Nc1nnc(-c2ccccc2O)cc1OCCc1ccc(C(=O)NCCCCNc2ccc3c(c2)C(=O)N(C2CCC(=O)NC2=O)C3=O)cc1` (centres unmarked) [Compound 42, 4-(2-[[3-amino-6-(2-hydroxyphenyl)pyridazin-4-yl]oxy]ethyl)-N-(4-[[2-(2,6-dioxopiperidin-3-yl)-1,3-dioxoisoindol-5-yl]amino]butyl)benzamide], on HiBiT-BRM, the “BRM HiBit Degradation Maximum (%)” value is on record as “C (“C” indicates maximum degradation <50%)” and the DC50 is above 1 µM. Moreover, at HiBit-BRG1, the DC50 was above 1 µM and the Dmax was below 50%.
As for `Nc1nnc(-c2ccccc2O)cc1OCCc1ccc(CNC(=O)C2CCN(CCOc3ccc4c(c3)C(=O)N(C3CCC(=O)NC3=O)C4=O)CC2)cc1` (centres unmarked) [Compound 19, N-(4-(2-((3-amino-6-(2-hydroxyphenyl)pyridazin-4-yl)oxy)ethyl)benzyl)-1-(2-((2-(2,6-dioxopiperidin-3-yl)-1,3-dioxoisoindolin-5-yl)oxy)ethyl)piperidine-4-carboxamide], at HiBiT-BRM, the “BRM HiBit Degradation Maximum (%)” value was “C (“C” indicates maximum degradation <50%)” and the DC50 was above 1 µM. Further, at HiBit-BRG1, the DC50 is above 1 µM and the Dmax is below 50%.
With `Cc1ncsc1-c1ccc([C@H](C)NC(=O)[C@@H]2C[C@@H](O)CN2C(=O)[C@@H](c2cc(OCCN3CC(C4CN(C(=O)c5ccc(CCOc6cc(-c7ccccc7O)nnc6N)cc5)C4)C3)no2)C(C)C)cc1` [Compound 222, (2S,4R)-1-((R)-2-(3-(2-(1′-(4-(2-((3-amino-6-(2-hydroxyphenyl)pyridazin-4-yl)oxy)ethyl)benzoyl)-[3,3'-biazetidin]-1-yl)ethoxy)isoxazol-5-yl)-3-methylbutanoyl)-4-hydroxy-N-((S)-1-(4-(4-methylthiazol-5-yl)phenyl)ethyl)pyrrolidine-2-carboxamide], at HiBiT-BRM, the “BRM HiBit Degradation Maximum (%)” value is on record as “A (“A” indicates maximum degradation ≥75%)” and the DC50 was above 0.1 µM. Also, at HiBit-BRG1, the DC50 is above 0.1 µM and the Dmax is above 75%.
On to `Cc1ncsc1-c1ccc(CNC(=O)[C@@H]2C[C@@H](O)CN2C(=O)[C@@H](NC(=O)CCCCCCCCCNC(=O)c2ccc(CCNc3cc(-c4ccccc4O)nnc3N)cc2)C(C)(C)C)cc1` [Compound 134, (2S,4R)-1-[(2S)-2-(10-[[4-(2-[[3-amino-6-(2-hydroxyphenyl)pyridazin-4-yl]amino]ethyl)phenyl]formamido]decanamido)-3,3-dimethylbutanoyl]-4-hydroxy-N-[[4-(4-methyl-1,3-thiazol-5-yl)phenyl]methyl]pyrrolidine-2-carboxamide], for which, at HiBiT-BRM, the “BRM HiBit Degradation Maximum (%)” value is given as “B (“B” indicates maximum degradation ≥50%)” and the DC50 is above 0.1 µM. At HiBit-BRG1, the DC50 is above 1 µM and the Dmax is below 50%.
For `Cc1ncsc1-c1ccc(CNC(=O)[C@@H]2C[C@@H](O)CN2C(=O)[C@@H](NC(=O)CCCCCCCCCCC(=O)NCc2ccc(CCOc3cc(-c4ccccc4O)nnc3N)cc2)C(C)(C)C)cc1` [Compound 37], in that order: “B (“B” indicates maximum degradation ≥50%)”, above 0.1 µM, above 1 µM and below 50%.
`Nc1nnc(-c2ccccc2O)cc1OCCc1ccc(CNC(=O)COc2cccc3c2C(=O)N(C2CCC(=O)NC2=O)C3=O)cc1` (centres unmarked) [Compound 62, N-[[4-(2-[[3-amino-6-(2-hydroxyphenyl)pyridazin-4-yl]oxy]ethyl)phenyl]methyl]-2-[[2-(2,6-dioxopiperidin-3-yl)-1,3-dioxoisoindol-4-yl]oxy]acetamide]: at HiBiT-BRM, the “BRM HiBit Degradation Maximum (%)” value is on record as “C (“C” indicates maximum degradation <50%)” and the DC50 was above 1 µM. Moreover, at HiBit-BRG1, the DC50 was above 0.1 µM and the Dmax is above 50%.

The record behind these values is patent publication US20230150974A1 (Foghorn Therapeutics Inc., priority 2020, published 2023).
